Measurements taken from patent US20030171424A1, “Intravenous formulation of artelinic acid for treatment of severe and complicated malaria” (priority 2002, published 2003).

Legend:
[1] = in vivo; cited from earlier work
[2] = cited from earlier work; for CNS toxicity: chronically dosed rats and dogs; for CNS toxicity versus oil soluble analogs such as artemether and arteether: rats and dogs
[3] = Method: The most commonly used water soluble salt for acidic drugs is sodium salt. The sodium salt of artelinic acid was prepared in our laboratory by dissolving artelinic acid in a slightly less than one equivalent mole of sodium hydroxide solution. The slight excess amount of insoluble artelinic acid was removed by extraction of the mixture with diethyl ether. The aqueous layer was evaporated under reduced pressure using a rotary evaporator to remove the small amount of volatile diethyl ether, and then lyophilized to give sodium artelinate as a white powder.
[4] = Intravenous toxicity and tolerance in rat; assay type: in vivo; settings: in 5% sodium carbonate vehicle
From the text: Although a ready-to-use intravenous solution in a multiple dose vial is a convenient and preferable formulation, current formulation of dissolving preformed AL/LY salt in 0.3% of L-lysine/saline solution prior to administration has been used satisfactorily to assess the efficacy and toxicity of AL in rat, Aotus and Rhesus monkey models.

[5] = aqueous solution made in 5% sodium bicarbonate; cited from earlier work
[6] = Stability of bulk salt and solutions on standing; assay type: physicochemical
From the text: The precipitates were identified by NMR and x-ray crystallography to be pure artelinic acid.
Feasibility of using preformed AL salts with three basic amino acids, L-lysine, L-arginine or L-histidine for AL intravenous formulation were studied. The basicity of histidine is too weak to form water soluble AL-histidine salt. […] Therefore, L-lysine was deemed the most feasible.
AL/LY is soluble in water, saline, glucose solution or any IV injectable (neutral or basic) water solution. […] Therefore, for practical purpose, the preferred vehicle for intravenous injection is a normal saline or 5% glucose solution containing 0.1-0.5% L-lysine. The final osmolarity is around 290 mosm/kg.

[7] = tested on: P. berghei; settings: administered orally; cited from earlier work
[8] = tested on: P. knowlesi; settings: rhesus monkeys, 15 mg/kg×3 days; cited from earlier work
[9] = tested on: P. coatneyi malaria; test: AL/LY Efficacy in Uncomplicated Malaria (rhesus); assay type: in vivo; settings: control animal, 7 days of IM BID
Method: 1. AL/LY Efficacy in Uncomplicated Malaria (done with PK trial)
i. 10 splenectomized rhesus with mild P. coatneyi malaria (mean parasitemia 773K/μl or 11.8%) and one quinine control (773K/μl or 13.5%). All asymptomatic.
ii. 11.8 mg/kg loading dose given IV push over 3 minutes, then 5.9 mg/kg for 2 days

[10] = tested on: severe malaria; test: Efficacy in Severe Malaria (rhesus); assay type: in vivo

## CCO[C@H]1O[C@@H]2O[C@@]3(C)CC[C@H]4[C@H](C)CC[C@@H]([C@H]1C)[C@@]24OO3 [arteether, Arteether]
[1]
  plasma half-life: short plasma half-life
[2]
  CNS toxicity: fatal CNS toxicity

## artelinic acid [AL]
[3]
  water solubility: not water soluble
[2]
  CNS toxicity versus oil soluble analogs such as artemether and arteether: substantially less CNS toxicity
[4]; female rat
  LD50: 50 mg/kg
[4]; male rat
  LD50: 67 mg/kg

## C[C@H]1[C@H](OC(=O)CCC(=O)[O-])O[C@@H]2O[C@@]3(C)CC[C@H]4[C@H](C)CC[C@@H]1[C@@]24OO3.[Na+] [sodium artesunate, Sodium artesunate]
[1]
  plasma half-life: 20 to 30 min
[5]
  time within which dihydroartemisinin precipitates out from unused solution: 2 to 3 h

## CC1CCC2C(C)C(OCc3ccc(C(=O)O)cc3)OC3OC4(C)CCC1C32OO4.N=C(N)NCCCC(N)C(=O)O (stereo not shown) [AL-arginine salt]
[6]; room temperature, within two days to one week
  colour of aqueous solution on standing: turned to deep red color

## CO[C@H]1O[C@@H]2O[C@@]3(C)CC[C@H]4[C@H](C)CC[C@@H]([C@H]1C)[C@@]24OO3 [artemether, Artemether]
[1]
  plasma half-life: short plasma half-life
[2]
  CNS toxicity: fatal CNS toxicity

## C[C@H]1[C@H](OC(=O)CCC(=O)O)O[C@@H]2O[C@@]3(C)CC[C@H]4[C@H](C)CC[C@@H]1[C@@]24OO3 [AS, artesunic acid]
[2]
  CNS toxicity versus oil soluble analogs such as artemether and arteether: substantially less CNS toxicity

## C[C@H]1[C@@H](OCc2ccc(C(=O)[O-])cc2)O[C@@H]2O[C@]3(C)CC[C@H]4[C@H](C)CC[C@@H]1[C@@]24OO3.[Na+] [Na-AL, Sodium artelinate]
[3]
  solubility in distilled water: does not dissolve completely
  solubility in sodium carbonate solution: very soluble
  water solubility: > 60 mg/mL
[7]
  efficacy: highly effective
[1]
  plasma half-life: 90 to 180 min
[6]; in sodium carbonate 0.1 to 0.5%, depending on concentration
  time the solution stayed clear: from one week to one month
[6]; room temperature
  appearance of freshly prepared aqueous solution on standing: turned turbidity
[6]; room temperature for three months
  decomposition product on standing: No decomposition product was detected
[6]; sodium carbonate solutions, room temperature, longer period, free artelinic acid
  crystal formation on longer standing: crystallized out from all solutions
[8]
  cure of infection: complete cures

## C=C[C@H]1C[N@@]2CC[C@H]1C[C@H]2[C@H](O)c1ccnc2ccc(OC)cc12 [quinine]
[9]
  day on which parasitemia cleared: 8 days
[10]; IM BID for 7 days
  cure: all cured
  parasitemia cleared, mean time: 5.6 days
  time to resolution of severe malaria symptoms: 3 days
[10]; IM BID for 7 days, controls (4 of 5)
  survived: 80%
[10]; therapy delayed 24 hours
  died: 50%
